The text below walks through data of patent US5990104A, “Polycyclic alcaloid-derivatives as NMDA-receptor antagonists” (priority 1995, dated 1999).

What all share (type): in vivo
For one series, the system named is NMDA-induced convulsions. As to the kind of experiment: Neuroprotective/anticonvulsant activity against NMDA-induced convulsions and mortality in mice. As to conditions: for CD50 (95% confidence interval): icv, NMDA 1 nmole/mouse; for CD50 (95% confidence interval) / time course of protecting effects: mice; for neuroprotectant activity, dose dependence: NMDA challenge in mice, FIGS. 1-3; for time course of protecting effects: i.c.v. preadministration at various doses, NMDA challenge. Here is the method:
The term CD50 as shown in Table 1 is defined as the dose of drug which induces a 50% reduction in the number of deaths caused by NMDA administration.
For purposes of comparison, the compounds of the present invention and reference standards were administered to mice and the time course of neuroprotectant activity was determined subsequent to challenge by NMDA. Compounds were administered i.c.v. or i.p. at different times and concentrations prior to injection of NMDA (1 nmol/mouse, I.C.V.). The mortality rate (CD50) TABLE I and the response curves.
In FIG. 1, dextrorphan was i.c.v. preadministered at a concentration of 1.0 (closed circle); 5.0 (open square); and 10 (closed square) nmole/mouse. The open circle represents preadministration of saline at a concentration of 10 μl/mouse.
A does dependent time course profile of the neuroprotectant activity against NMDA induced convulsions of compound #9 in mice is illustrated in FIG. 3. […] In both FIGS. 2 and 3, the respective compound was preadministered at (open circle); 50 (closed circle); and 100 (closed square) nmole/mouse.
Comparison of anticonvulsant activity of compounds of the
present invention and dextrorphan against NMDA-induced
convulsions in mice (at 1 nmole/mouse)

Series [1] is described as follows: Motor coordination by rotarod. The settings on record: 8 rpm, Compound #13 compared to dextrorphan. Here is the method: Motor effects illicited by various antagonists were assessed using a rotarod treadmill (model 7600, UGO Basile, Italy). The method used was similar to the procedure described by Dunhamand Miya (J. Am. Pharmac. Assoc. 46 208-209-1957). The apparatus consisted of a rod of 2.5 cm diameter which was suspended horizontally 50 cm above a working area. The rod was turned at a speed of 8 rpm. Circular perplex separators were placed at intervals along the rod so that five animals could be tested simultaneously. All animals were conditioned to the rod for two consecutive days prior to experimentation.
The results of a study in which comparative motor impairment caused by Compound #13 was compared to dextrorphan, as assessed by rotarod.
Background: Falling from the rotarod earlier than controls is read as motor impairment.

A short description of series [2]: Locomotion and falling behaviour. As to conditions: I.C.V., mice, observed 15 to 30 minutes. As for the experimental part: Mice were place individually in observation cages for a 60 minute habituation period. They were injected I.C.V. with test compounds and observed for 15 to 30 minutes. Locomotion and falling behavior were assessed according to the procedure of Koek and Colpaert (J. Pharm. Exp. Therm. 252 349-357, 1990). For each animal, the presence of locomotor activity and falling behaviour was recorded. Statistical significance of drug-induced changes in the occurrence of a particular behaviour was tested by means of the method of Fray et al. (Psycopharmacol 69 253-259, 1980). MK-801, known to have intrinsic neurotoxicity, induced falling behaviour at doses as low as 1.5 nmol/mouse.

As to `CC12CCCCSC(Cc3ccc(O)cc31)C2N` (single isomer, unassigned; (+)) [Compound #9b, (+)-trans-5,6,7,8,9,11,12-heptahydro-10-thia-3-hydroxy-5-methyl-5,11-methanobenzocyclodecen-13amine], the “CD50 (95% confidence interval)” value in the series on NMDA-induced convulsions is listed as 1.58 (0.95-2.62) nmo1/mouse.
For `CC12CCCCSC(Cc3ccc(O)cc31)C2N` (single isomer, unassigned; (-)) [Compound #9a, (-)-trans-5,6,7,8,9,11,12-heptahydro-10-thia-3-hydroxy-5-methyl-5,11-methanobenzocyclodecen-13-amine], the “CD50 (95% confidence interval)” value in the series on NMDA-induced convulsions is 2.90 (1.75-4.85) nmo1/mouse.
As to `COc1ccc2c(c1)C1(C)CCCCSC(C2)C1N` (stereo not shown) [Compound #8b, 5,6,7,8,9,11,12-heptahydro-3-methoxy-5-methyl-10-thia-5,11-methanobenzocyclodecen-13-amine], in the series on NMDA-induced convulsions, the “CD50 (95% confidence interval)” value is on record as 7.64 (4.8-12.0) nmo1/mouse.
`CC12CCCCSC(Cc3ccc(O)cc31)C2N` (stereo not shown) [Compound #9, 5,6,7,8,9,11,12-heptahydro-3-hydroxy-5-methyl-10-thia-5,11-methanobenzocyclodecen-13-amine]: in the series with NMDA-induced convulsions, the “neuroprotectant activity, dose dependence” value (“neuroprotectant activity” for short) is listed as “dose dependent neuroprotectant activity effect”; the “time course of protecting effects” value is recorded as “time-dependent decreases in the protective effects”; the “CD50 (95% confidence interval)” value is 0.95 (0.62-1.45) nmo1/mouse.
For the molecule `CC12CCCCSC(Cc3ccc(O)cc31)C2NO` (stereo not drawn) [Compound #10, 5,6,7,8,9,11,12-heptahydro-3-hydroxy-5-methyl-10-thia-5,11-methanobenzocyclodecene-13-β-hydroxylamine], the “CD50 (95% confidence interval)” value in the series on NMDA-induced convulsions is 1.79 (0.99-3.25) nmo1/mouse.
With `CC12CCCCSC(Cc3ccc(O)cc31)C2NC(=N)N` (stereo not drawn) [Compound #11, trans-5,6,7,8,9,11,12-heptahydro-10-thia-3-hydroxy-5-methyl-5,11-methanobenzocyclodecen-13-guanidine], the “potency relative to Dextrorphan” value in the series with NMDA-induced convulsions (NMDA-induced convulsions in mice) was “approximately 3 fold”. Moreover, in the series with NMDA-induced convulsions (NMDA-induced convulsions in mice, in words), the anticonvulsive activity entry is “greatest activity”. Also, the “CD50 (95% confidence interval)” value with NMDA-induced convulsions is given as 0.16 (0.11-0.25) nmo1/mouse.
For `CC12CCCCCC(Cc3ccc(O)cc31)C2N` (stereo not shown) [Compound #13, 5,6,7,8,9,11,12-heptahydro-3-hydroxy-5-methyl-5, 11-methanobenzocyclodecene-13-amine, reference compound], in the series on NMDA-induced convulsions, the “neuroprotectant activity” value is listed as “dose dependent neuroprotectant activity effect”; the “time course of protecting effects” value is given as “time-dependent decreases in the protecting effects”; the “CD50 (95% confidence interval)” value was 28.7 (15.3-53.8) nmo1/mouse. Moreover, the “percentage of animals showing motor effects” value in series [1] was “higher for animals treated with dextrorphan than for animals treated with Compound #13”.
In the case of `CN1CC[C@@]23CCCC[C@@H]2[C@@H]1Cc1ccc(O)cc13` [Dextrorphan, dextrorphan, reference compound], in the series on NMDA-induced convulsions, the “neuroprotectant activity” value is “dose dependent neuroprotectant activity effect”; the “time course of protecting effects” value is recorded as “time-dependent decreases in the protecting effects”; the “CD50 (95% confidence interval)” value is listed as 0.55 (0.39-0.78) nmo1/mouse. For the same molecule, the “percentage of animals showing motor effects” value in series [1] is “higher for animals treated with dextrorphan than for animals treated with Compound #13”.
`C[C@]12N[C@H](Cc3ccccc31)c1ccccc12` [MK-801]: in series [2], the “dose inducing falling behaviour (as low as)” value is 1.5 nmol/mouse.
